Experimental data taken from US20100324829A1, “METHOD OF SELECTING HLA-DP4 LIGANDS AND THE APPLICATIONS THEREOF” (priority 2001, published 2010).
Where a chain is given by its changes, count along the chain named.

Columns and labels:
[1] = molecular target: T1, HLA-DP4 molecule DPA1*0103/DPB1*0401 (DP401) (Homo sapiens, UniProt P04440+P20036); assay: biochemical; type: binding
T1 construct: purified from various human B lymphocyte lines transformed with the Epstein Barr virus (EBV), which are homozygotes for DP; endogenous in cells
T1 sequence (P20036 29-260): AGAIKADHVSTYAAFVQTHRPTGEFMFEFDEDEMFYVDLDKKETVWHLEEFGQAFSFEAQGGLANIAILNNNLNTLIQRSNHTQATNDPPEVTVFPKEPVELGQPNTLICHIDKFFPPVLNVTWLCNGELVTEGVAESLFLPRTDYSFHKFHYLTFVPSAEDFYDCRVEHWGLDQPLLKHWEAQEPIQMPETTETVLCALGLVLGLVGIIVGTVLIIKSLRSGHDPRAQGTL
T1 sequence (P04440 30-258): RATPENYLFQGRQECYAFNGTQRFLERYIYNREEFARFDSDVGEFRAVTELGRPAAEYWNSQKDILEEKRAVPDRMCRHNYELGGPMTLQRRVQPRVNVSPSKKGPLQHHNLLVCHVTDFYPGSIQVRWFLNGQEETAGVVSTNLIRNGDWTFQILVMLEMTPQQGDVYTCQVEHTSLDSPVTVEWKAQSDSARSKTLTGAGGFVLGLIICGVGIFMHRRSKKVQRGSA

[2] = molecular target: T2, HLA-DP4 molecule DPA1*0103/DPB1*0402 (DP402) (Homo sapiens, UniProt P04440+P20036); assay: biochemical; type: binding
T2 construct: purified from various human B lymphocyte lines transformed with the Epstein Barr virus (EBV), which are homozygotes for DP; endogenous in cells
T2 sequence (P20036 29-260): T1 sequence (P20036 29-260)
T2 sequence (P04440 30-258 A65V/A84D/A85E): T1 sequence (P04440 30-258) with A36V, A55D, A56E

Compound | IC50 ([1]; IC50 (nM) DP0401, Api m1 overlapping peptides, tracer bUNK 1-17 10 nM, pH 5, 24 h) [nM] | Loss of binding to DP*0402 (ratio of the IC50 values for the mutant peptide and for the UNK1 peptide) [2] | Loss of binding to DP*0401 (ratio of the IC50 values for the mutant peptide and for the UNK1 peptide) [1]
CC[C@H](C)[C@H](NC(=O)[C@H](CC(C)C)NC(=O)[C@H](CC(N)=O)NC(=O)[C@H](Cc1ccccc1)NC(=O)[C@H](Cc1ccc(O)cc1)NC(=O)[C@H](CCSC)NC(=O)[C@H](CCCCN)NC(=O)CNC(=O)[C@@H](NC(=O)[C@H](Cc1ccccc1)NC(=O)[C@@H](N)Cc1ccc(O)cc1)C(C)C)C(=O)N[C@@H](CC(=O)O)C(=O)N[C@H](C(=O)N[C@@H](CCCCN)C(=O)N[C@@H](CS)C(=O)N[C@@H](Cc1ccc(O)cc1)C(=O)N[C@@H](CCCCN)C(=O)N[C@@H](CC(C)C)C(=O)O)[C@@H](C)O [81-98] | 2250 | – | –
AYFAATQFEPLAA [UNK K3A] | – | 1 | 0.9
KAFAATQFEPLAA [UNK Y4A] | – | 0.9 | 1.2
KKFAATQFEPLAA [UNK Y4K] | – | 1 | 1.2
KYAAATQFEPLAA [UNK F5A] | – | 5.7 | 41
KYEAATQFEPLAA [UNK F5E] | – | 123 | 117
KYFAAAQFEPLAA [UNK T8A] | – | 0.8 | 0.8
KYFAADQFEPLAA [UNK T8D] | – | 2.3 | 2
KYFAAEQFEPLAA [UNK T8E] | – | 3.7 | 2.7
KYFAAFQFEPLAA [UNK T8F] | – | 1.7 | 2.7
KYFAAKQFEPLAA [UNK T8K] | – | 3.6 | 31
KYFAALQFEPLAA [UNK T8L] | – | 2.6 | 1.9
KYFAANQFEPLAA [UNK T8N] | – | 4.8 | 4.1
KYFAARQFEPLAA [UNK T8R] | – | 6.7 | 17
KYFAASQFEPLAA [UNK T8S] | – | 3.4 | 2.7
KYFAATAFEPLAA [UNK Q9A] | – | 0.6 | 0.8
KYFAATKFEPLAA [UNK Q9K] | – | 0.9 | 1.6
KYFAATQAEPLAA [UNK F10A] | – | 62 | 336
KYFAATQEEPLAA [UNK F10E] | – | 1190 | 1405
KYFAATQFAPLAA [UNK E11A] | – | 0.5 | 0.5
KYFAATQFEALAA [UNK P12A] | – | 0.9 | 1.2
